Reference: patent US6440996B1, “Monomeric and dimeric heterocycles, and therapeutic uses thereof” (priority 1998, dated 2002)
Structures can show the parent of a compound that is named as a salt. Where two headings read alike, the source gives them in different places.

Tests used:
dopamine transporter [1] = biological target: T1, dopamine transporter (Rattus norvegicus, UniProt P23977); assay: Inhibition of high-affinity [3H]dopamine uptake into rat striatal nerve endings (synaptosomes); assay type: biochemical
T1 construct: from tissue; P2 synaptosomes for uptake
T1 sequence (P23977 whole entry): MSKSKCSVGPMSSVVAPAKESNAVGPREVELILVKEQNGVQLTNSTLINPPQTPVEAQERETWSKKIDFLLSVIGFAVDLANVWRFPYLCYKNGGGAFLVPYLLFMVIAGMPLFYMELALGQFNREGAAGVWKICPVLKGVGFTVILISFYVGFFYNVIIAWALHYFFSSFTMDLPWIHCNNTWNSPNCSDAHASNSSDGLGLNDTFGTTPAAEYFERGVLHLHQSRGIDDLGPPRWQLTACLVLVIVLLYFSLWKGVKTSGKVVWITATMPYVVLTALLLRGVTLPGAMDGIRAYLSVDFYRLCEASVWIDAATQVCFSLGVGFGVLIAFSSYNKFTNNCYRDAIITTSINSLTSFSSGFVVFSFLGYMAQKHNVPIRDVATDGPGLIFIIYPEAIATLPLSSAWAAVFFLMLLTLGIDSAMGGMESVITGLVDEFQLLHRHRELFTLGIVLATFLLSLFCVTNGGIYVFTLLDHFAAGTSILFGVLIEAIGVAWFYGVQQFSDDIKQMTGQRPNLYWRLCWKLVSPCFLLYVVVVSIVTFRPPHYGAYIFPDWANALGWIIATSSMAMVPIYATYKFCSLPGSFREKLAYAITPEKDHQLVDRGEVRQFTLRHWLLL
Method: A. [^3H]Dopamine Uptake Studies
The effect of candidate compounds in antagonizing dopamine high-affinity uptake was determined using a method previously employed. For [^3H]DA uptake, dissected rat striata were homogenized with a Teflon-glass pestle in ice-cold 0.32 M sucrose and centrifuged for 10 min at 1000×g. The supernatant was centrifuged at 17,500×g for 20 min. This P2 synaptosomal pellet was resuspended in 30 volumes of ice-cold modified KRH buffer. An aliquot of the synaptosomal suspension was preincubated with the buffer and drug for 30 min at 37° C., and uptake initiated by the addition of [^3H]dopamine (5 nM, final concentration). After 5 min, uptake was terminated by adding 5 mL of cold buffer containing glucosamine as a substitute for NaCl and then finally by rapid vacuum filtration over GF-C glass fiber filters, followed by washing with two 5 mL volumes of ice-cold, sodium-free buffer. Radioactivity retained on the filters was determined by liquid scintillation spectrometry. […] It is identical to that calculated by subtracting the mean of identical tubes incubated at 0° C.

dopamine transporter [2] = biological target: T1, dopamine transporter; assay: [3H]WIN 35,428 binding to rat striatal membranes / dopamine transporter binding (DAT)
Method: (§1) Determination of inhibitory binding potencies of analogues at dopamine, serotonin, and norepinephrine transporters are carried out using standard receptor binding assays which are known in the art.
A. Dopamine Transporter Binding (DAT)

[3] = biological target: norepinephrine transporter (Rattus norvegicus, UniProt Q9WTR4); assay: Norepinephrine transporter binding (NET)
Chain of norepinephrine transporter (Q9WTR4 1-597): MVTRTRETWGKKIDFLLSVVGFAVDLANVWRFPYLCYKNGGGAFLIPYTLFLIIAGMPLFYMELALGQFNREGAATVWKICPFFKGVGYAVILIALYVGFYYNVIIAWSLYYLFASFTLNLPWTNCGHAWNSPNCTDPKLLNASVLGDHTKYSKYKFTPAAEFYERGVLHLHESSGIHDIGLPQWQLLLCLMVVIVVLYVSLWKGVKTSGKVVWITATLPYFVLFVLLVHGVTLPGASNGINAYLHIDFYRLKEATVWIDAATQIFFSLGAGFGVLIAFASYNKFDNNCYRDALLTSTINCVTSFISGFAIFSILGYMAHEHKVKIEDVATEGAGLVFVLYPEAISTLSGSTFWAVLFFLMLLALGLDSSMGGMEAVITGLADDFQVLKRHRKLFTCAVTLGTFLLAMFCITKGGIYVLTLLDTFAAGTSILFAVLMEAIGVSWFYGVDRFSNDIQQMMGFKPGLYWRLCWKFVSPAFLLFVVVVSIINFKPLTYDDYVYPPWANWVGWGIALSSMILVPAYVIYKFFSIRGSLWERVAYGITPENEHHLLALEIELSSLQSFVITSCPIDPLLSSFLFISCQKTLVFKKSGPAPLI
Method: as §1
C. Norepinephrine Transporter Binding (NET)
J. Med Chem., 36, 2886-2890.

serotonin transporter = serotonin transporter (Rattus norvegicus, UniProt P31652); assay: Serotonin transporter binding (5-HTT)
Chain of serotonin transporter (P31652 whole entry): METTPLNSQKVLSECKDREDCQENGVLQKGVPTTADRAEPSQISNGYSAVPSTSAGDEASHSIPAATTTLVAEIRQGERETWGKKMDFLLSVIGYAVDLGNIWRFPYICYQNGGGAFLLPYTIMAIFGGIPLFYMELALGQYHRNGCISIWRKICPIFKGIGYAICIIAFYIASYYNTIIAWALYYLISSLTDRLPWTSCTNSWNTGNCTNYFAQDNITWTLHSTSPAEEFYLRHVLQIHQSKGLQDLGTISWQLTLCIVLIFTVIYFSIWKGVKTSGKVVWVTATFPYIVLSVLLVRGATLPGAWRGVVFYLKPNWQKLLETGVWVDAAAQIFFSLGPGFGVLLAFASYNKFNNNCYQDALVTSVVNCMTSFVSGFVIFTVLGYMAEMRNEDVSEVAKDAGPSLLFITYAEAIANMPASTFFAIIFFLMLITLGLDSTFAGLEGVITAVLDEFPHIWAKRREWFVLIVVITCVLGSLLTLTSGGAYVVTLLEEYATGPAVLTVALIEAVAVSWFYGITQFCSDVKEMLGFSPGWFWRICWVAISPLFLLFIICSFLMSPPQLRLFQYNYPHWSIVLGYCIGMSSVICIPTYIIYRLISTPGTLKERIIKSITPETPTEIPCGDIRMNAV
Method: as §1
B. Serotonin Transporter Binding (5-HTT)
Mol. Pharmacol., 39, 339.

[4] = Table 2, unit inferred, read-out: Dopamine Uptake
[5] = rat striatal synaptosomes, Table 1, read-out: IC50 (nM) [3H]dopamine uptake
[6] = rat striatal membranes, Table 1, read-out: IC50 (nM) [3H]WIN 35,428 binding
[7] = Table 2, read-out: NET IC50 (nm)
[8] = Table 2, read-out: 5-HTT IC50 (nm)
[9] = Table 2, read-out: DAT IC50 (nm)
[10] = IC50 (nM) [3H]WIN 35,428 binding, rat striatal membranes, Table 1

CCCC1CN(C)CCC1c1ccc(Cl)cc1 (single isomer, unassigned; (+)) [Compound 15, (+) 4β-(4-Chlorophenyl)-1-methyl-3α-n-propylpiperidine]
IC50 (dopamine transporter [1]; [4]): 23 nM | IC50 (dopamine transporter [1]; [5]): 23.2 ± 2.2 nM | IC50 (dopamine transporter [2]; [6]): 17.2 ± 0.5 nM | IC50 [3, 7]: 183 nM | IC50 (serotonin transporter; [8]): 155 nM

CCc1ccc(C2CCN(C)CC2C(=O)OC)cc1 (single isomer, unassigned; (+)) [Compound 67, (+)-Methyl 4β-(4-Ethylphenyl)-1-methylpiperidine-3α-carboxylate]
IC50 (dopamine transporter [2]; [9]): 7340 nM

COC(=O)C1CN(C)CCC1c1ccc(Br)cc1 (single isomer, unassigned; (-)) [Compound 63, (−)-Methyl 4β-(4-Bromophenyl)-1-methylpiperidine-3β-carboxylate]
melting point: 121 to 122 °C | IC50 (dopamine transporter [2]; DAT IC50 (nm), Table 2): 3 nM | IC50 (serotonin transporter; 5-HTT IC50 (nm), Table 2): 1100 nM

CCc1ccc(C2CCN(C)CC2C(=O)OC)cc1 (single isomer, unassigned; (-)) [Compound 81, (−)-Methyl 4β-(4-Ethylphenyl)-1-methylpiperidine-3β-carboxylate]
IC50 (dopamine transporter [2]; [9]): 1690 nM | IC50 [3, 7]: > 10000 nM | IC50 (serotonin transporter; 5-HTT IC50 (nm), Table 2): 15700 nM

CC(=O)OCC1CN(C)CCC1c1ccc(Cl)cc1 (single isomer, unassigned; (+)) [Compound 14, (+)-3α-(Acetoxymethyl)-4β-(4-chlorophenyl)-1-methylpiperidine]
IC50 (dopamine transporter [2]; DAT IC50 (nm), Table 2): 461 nM | IC50 (dopamine transporter [2]; [10]): 461 ± 11 nM

C=Cc1ccc(C2CCN(C)CC2C(=O)OC)cc1 (single isomer, unassigned; (-)) [Compound 64, (−)-Methyl 4β-(4-Vinylphenyl)-1-methylpiperidine-3β-carboxylate]
melting point: 68 to 69 °C | IC50 [3]: 65800 nM | IC50 (serotonin transporter; 5-HTT IC50 (nm), Table 2): 13200 nM

CC(=O)OCC1CN(C)CCC1c1ccc(Cl)cc1 (single isomer, unassigned; (+)) [Compound 8, (+)-3β-(Acetoxymethyl)-4β-(4-chlorophenyl)-1-methylpiperidine]
IC50 (dopamine transporter [1]; [4]): 2030 nM | IC50 (dopamine transporter [1]; [5]): 2030 ± 82 nM | IC50 (dopamine transporter [2]; DAT IC50 (nm), Table 2): 928 nM | IC50 (dopamine transporter [2]; [10]): 928 ± 43 nM

CC(=O)OC[C@@H]1CN(C)CC[C@@H]1c1ccc(Cl)cc1 [Compound 7, (−)-3β-(Acetoxymethyl)-4β-(4-chlorophenyl)-1-methylpiperidine]
IC50 (dopamine transporter [1]; [4]): 63 nM | IC50 (dopamine transporter [1]; [5]): 62.9 ± 2.7 nM | melting point: 76 °C | IC50 (dopamine transporter [2]; DAT IC50 (nm), Table 2): 10 nM | IC50 (dopamine transporter [2]; [6]): 44.7 ± 10.5 nM | IC50 [3]: 233 nM

C=Cc1ccc(C2CCN(C)CC2C(=O)OC)cc1 (single isomer, unassigned; (+)) [Compound 65, (+)-Methyl 4β-(4-Vinylphenyl)-1-methylpiperidine-3α-carboxylate]
IC50 (serotonin transporter; 5-HTT IC50 (nm), Table 2): 55700 nM

CCc1ccc(C2CCN(C)CC2C(=O)OC)cc1I (single isomer, unassigned; (+)) [Compound 68, (+)-Methyl 4β-(4-Ethyl-3-iodophenyl)-1-methylpiperidine-3α-carboxylate]
IC50 (dopamine transporter [2]; DAT IC50 (nm), Table 2): 1420 nM

COC(=O)[C@H]1CN(C)CC[C@@H]1c1ccc(Cl)cc1 [Compound 11, (+)-Methyl 4β-(4-Chlorophenyl)-1-methylpiperidine-3α-carboxylate]
IC50 (dopamine transporter [1]; [4]): 34 nM | IC50 (dopamine transporter [1]; [5]): 34.6 ± 3.2 nM | IC50 (dopamine transporter [2]; [9]): 57 nM | IC50 (dopamine transporter [2]; [6]): 57.3 ± 8.1 nM | IC50 [3]: 4200 nM | IC50 (serotonin transporter; 5-HTT IC50 (nm), Table 2): 1620 nM

COC(=O)C1CN(Cc2ccccc2)CCC1c1ccc(Cl)cc1 (single isomer, unassigned; (-)) [Compound 47, (−)-Methyl 4β-(4-Chlorophenyl)-1-benzylpiperidine-3β-carboxylate]
melting point: 119 to 121 °C | IC50 (dopamine transporter [2]; DAT IC50 (nm), Table 2): 917 nM

CN1CC[C@H](c2ccc(Cl)cc2)[C@@H](CCCO)C1 [Compound 54]
IC50 (dopamine transporter [2]; DAT IC50 (nm), Table 2): 15 nM | IC50 [3]: 563 nM | IC50 (serotonin transporter): 2810 nM

COC(=O)C1CN(C)CCC1c1ccc(Cl)cc1 (single isomer, unassigned; (+)) [Compound 4, (+)-Methyl 4β-(4-Chlorophenyl)-1-methylpiperidine-3β-carboxylate]
IC50 (dopamine transporter [1]; [4]): 5090 nM | IC50 (dopamine transporter [1]; [5]): 5090 ± 172 nM

COC(=O)[C@@H]1CN(C)CC[C@@H]1c1ccc(Cl)cc1 (racemic) [Compound 1, (±)-cis-Methyl 4-(4-Chlorophenyl)-1-methylpiperidine-3-carboxylate]
IC50 (dopamine transporter [1]; [5]): 37.8 ± 7.9 nM | melting point: 98 to 99 °C | IC50 (dopamine transporter [2]; DAT IC50 (nm), Table 2): 22 nM | IC50 (dopamine transporter [2]; [10]): 53.7 ± 1.9 nM

CN1CCC(c2ccc(Cl)cc2)C(CO)C1 (single isomer, unassigned; (+)) [Compound 6, (+)-4β-(4-Chlorophenyl)-3β-(hydroxymethyl)-1-methylpiperidine]
IC50 (dopamine transporter [2]; DAT IC50 (nm), Table 2): 442 nM | IC50 (dopamine transporter [2]; [10]): 442 ± 32 nM

CCc1ccc(C2CCN(C)CC2C(=O)OC)cc1I (single isomer, unassigned; (-)) [Compound 66, (−)-Methyl 4β-(4-Ethyl-3-iodophenyl)-1-methylpiperidine-3β-carboxylate]
IC50 (dopamine transporter [2]; DAT IC50 (nm), Table 2): 4410 nM

CN1CC[C@H](c2ccc(Cl)cc2)[C@@H](CCCF)C1 [Compound 80, (+)-4β-(4-Chlorophenyl)-3α-(3-fluoropropyl)-1-methylpiperidine]
IC50 (dopamine transporter [2]; DAT IC50 (nm), Table 2): 28 nM

CN1CCC(c2ccc(Cl)cc2)C(CCCS)C1 (single isomer, unassigned; (+)) [Compound 55]
IC50 (dopamine transporter [2]; [9]): 28 nM

CN1CCC(c2ccc(Cl)cc2)C(c2nc(-c3ccccc3)no2)C1 (single isomer, unassigned; (+)) [Compound 58]
IC50 (dopamine transporter [2]; DAT IC50 (nm), Table 2): 289 nM | IC50 (serotonin transporter): 7400 nM

COC(=O)C1CN(C)CCC1c1ccc2ccccc2c1 (racemic) [Compound 75, (±)-Methyl 4-(2-Naphthyl)-1-methylpiperidine-3-carboxylate]
IC50 (dopamine transporter [2]; DAT IC50 (nm), Table 2): 78 nM | IC50 [3]: 607 nM | IC50 (serotonin transporter; 5-HTT IC50 (nm), Table 2): 366 nM

CN1CCC(c2ccc(Cl)cc2)C(C(=O)Oc2ccccc2)C1 (single isomer, unassigned; (+)) [Compound 59, (+)-Phenyl 4β-(4-Chlorophenyl)-1-methylpiperidine-3α-carboxylate]
IC50 (dopamine transporter [2]; DAT IC50 (nm), Table 2): 1460 nM | IC50 [3]: 56500 nM | IC50 (serotonin transporter; 5-HTT IC50 (nm), Table 2): 25100 nM

CN1CCC(c2ccc(Cl)cc2)C(CO)C1 (single isomer, unassigned; (+)) [Compound 13, (+)-4β-(4-Chlorophenyl)-3α-(hydroxymethyl)-1-methylpiperidine]
IC50 (dopamine transporter [1]; [4]): 864 nM | IC50 (dopamine transporter [1]; [5]): 683 ± 47 nM | IC50 (dopamine transporter [2]; DAT IC50 (nm), Table 2): 240 nM | IC50 (dopamine transporter [2]; [10]): 240 ± 18 nM

COC(=O)C1(C)CN(C)CCC1c1ccc(Cl)cc1 (single isomer, unassigned; (-)) [Compound 49, (−)-Methyl 4β-(4-Chlorophenyl)-3β-methyl-1-methylpiperidine-3b-carboxylate]
IC50 (dopamine transporter [2]; DAT IC50 (nm), Table 2): 1970 nM

COC(=O)C1CN(S(=O)(=O)c2ccccc2)CCC1c1ccc(Cl)cc1 (single isomer, unassigned; (-)) [Compound 46, (−)-Methyl 4β-(4-Chlorophenyl)-1-phenylsulfonyl-piperidine-3β-carboxylate]
melting point: 76 to 78 °C | IC50 (dopamine transporter [2]; DAT IC50 (nm), Table 2): 26100 nM | IC50 [3]: > 10000 nM

CCC[C@@H]1CN(C)CC[C@@H]1c1ccc(Cl)cc1 [Compound 9, (−) 4β-(4-Chlorophenyl)-1-methyl-3β-n-propylpiperidine]
IC50 (dopamine transporter [1]; [4]): 8 nM | IC50 (dopamine transporter [1]; [5]): 8.3 ± 0.6 nM | fold more potent than cocaine in inhibition of dopamine uptake (dopamine transporter [1]; relative to cocaine): 29 fold | IC50 (dopamine transporter [2]; [9]): 3 nM | IC50 (dopamine transporter [2]; [6]): 3 ± 0.5 nM | IC50 (dopamine transporter [2]; read-out: binding affinity): 3 nM | fold more potent than cocaine in binding affinity (dopamine transporter [2]; relative to cocaine): 33 fold

COC(=O)[C@@H]1CN(C)CC[C@@H]1c1ccccc1 [Compound 10, (−)-Methyl 1-Methyl-4β-phenylpiperidine-3β-carboxylate]
IC50 (dopamine transporter [2]; DAT IC50 (nm), Table 2): 797 nM | IC50 (dopamine transporter [2]; [10]): 769 ± 19 nM

CN1CC[C@H](c2ccc(Cl)cc2)[C@H](CO)C1 [Compound 5, (−)-4β-(4-Chlorophenyl)-3β-(hydroxymethyl)-1-methylpiperidine]
IC50 (dopamine transporter [1]; [4]): 49 nM | IC50 (dopamine transporter [1]; [5]): 49 ± 3 nM | IC50 (dopamine transporter [2]; DAT IC50 (nm), Table 2): 75 nM | IC50 (dopamine transporter [2]; [10]): 75.3 ± 6.2 nM

Cc1noc(C2CN(C)CCC2c2ccc(Cl)cc2)n1 (single isomer, unassigned; (+)) [Compound 56]
IC50 (dopamine transporter [2]; [9]): 172 nM | IC50 [3, 7]: 1130 nM | IC50 (serotonin transporter; [8]): > 10000 nM

CN1CCC(c2ccc(Cl)cc2)C(C(=O)Oc2ccccc2)C1 (single isomer, unassigned; (-)) [Compound 60, (−)-Phenyl 4β-(4-Chlorophenyl)-1-methylpiperidine-3b-carboxylate]
IC50 (dopamine transporter [2]; DAT IC50 (nm), Table 2): 39 nM

COC(=O)C1CN(C)CCC1c1ccc(Cl)cc1 (single isomer, unassigned; (-)) [Compound 12, (−)-Methyl 4β-(4-Chlorophenyl)-1-methylpiperidine-3α-carboxylate]
IC50 (dopamine transporter [1]; [4]): 195 nM | IC50 (dopamine transporter [1]; [5]): 195 ± 8 nM | IC50 (dopamine transporter [2]; DAT IC50 (nm), Table 2): 653 nM | IC50 (dopamine transporter [2]; [10]): 653 ± 38 nM

COC(=O)C1CN(C)CCC1c1ccc(Cl)cc1 (racemic) [1 · HCl]
IC50 (dopamine transporter [2]; DAT IC50 (nm), Table 2): 53 nM
